Measurements published in ChEMBL document CHEMBL3885881, “DrugMatrix”.

Organism: Rattus norvegicus
Test: DrugMatrix - Regimen: Daily Repeat
Format: toxicity, organism-based, Sprague-Dawley
Parameters: regimen Daily Repeat, gender Male, age 6-8 weeks
Settings: in vivo, po, route oral GAVAGE, […]; for ABSOLUTE BASOPHIL / ABSOLUTE EOSINOPHIL / ABSOLUTE LYMPHOCYTE / ABSOLUTE MONOCYTE / ABSOLUTE SEGMENTED NEUTROPHIL / BASOPHIL / EOSINOPHIL / ERYTHROCYTE COUNT / HEMATOCRIT / HEMOGLOBIN / LEUKOCYTE COUNT / LYMPHOCYTE / MEAN CORPUSCULAR HEMOGLOBIN / MEAN CORPUSCULAR HEMOGLOBIN CONCENTRATION / MEAN CORPUSCULAR VOLUME / MONOCYTE / NEUTROPHIL / NUCLEATED RED BLOOD CELLS / PLATELET COUNT: tissue Blood; for ALANINE AMINOTRANSFERASE / ALBUMIN / ALKALINE PHOSPHATASE / ASPARTATE AMINOTRANSFERASE / BLOOD UREA NITROGEN / CARBON DIOXIDE / CHLORIDE / CHOLESTEROL / CREATINE PHOSPHOKINASE / CREATININE / GLUCOSE / LACTATE DEHYDROGENASE / LIPASE / PHOSPHORUS / POTASSIUM / SODIUM / TOTAL BILIRUBIN / TOTAL PROTEIN / URIC ACID: tissue Plasma
[1] = 29 mg/kg, 120 h, dose level Low, time 5 day
[2] = 450 mg/kg, 72 h, dose level High, time 3 day
[3] = 450 mg/kg, 120 h, dose level High, time 5 day

C[C@@H]1CN(c2c(F)c(N)c3c(=O)c(C(=O)O)cn(C4CC4)c3c2F)C[C@H](C)N1 [SPARFLOXACIN]
ABSOLUTE BASOPHIL [1]: 0 CELLS/uL | ABSOLUTE EOSINOPHIL [1]: 69.33 CELLS/uL | ABSOLUTE LYMPHOCYTE [1]: 8350.33 CELLS/uL | ABSOLUTE MONOCYTE [1]: 91.33 CELLS/uL | ABSOLUTE SEGMENTED NEUTROPHIL [1]: 455.67 CELLS/uL | BASOPHIL [1]: 0% | EOSINOPHIL [1]: 0.67% | ERYTHROCYTE COUNT [1]: 5.79 x10E6/uL | HEMATOCRIT [1]: 35.13% | HEMOGLOBIN [1]: 13.97 G/DL | LEUKOCYTE COUNT [1]: 8.97 x10E3/uL | LYMPHOCYTE [1]: 93% | MEAN CORPUSCULAR HEMOGLOBIN [1]: 24.13 pg | MEAN CORPUSCULAR HEMOGLOBIN CONCENTRATION [1]: 39.73 G/DL | MEAN CORPUSCULAR VOLUME [1]: 60.73 fL | MONOCYTE [1]: 1% | NEUTROPHIL [1]: 5.33% | NUCLEATED RED BLOOD CELLS [1]: 0 /100WBC | PLATELET COUNT [1]: 1048 x10E3/uL | ALANINE AMINOTRANSFERASE [1]: 62 u/L | ALBUMIN [1]: 4.03 G/DL | ALKALINE PHOSPHATASE [1]: 251.67 u/L | ASPARTATE AMINOTRANSFERASE [1]: 82 u/L | BLOOD UREA NITROGEN [1]: 13.33 mg/dL | CARBON DIOXIDE [1]: 33 mmol/L | CHLORIDE [1]: 98.33 MEQ/L | CHOLESTEROL [1]: 65.67 mg/dL | CREATINE PHOSPHOKINASE [1]: 381.67 u/L | CREATININE [1]: 0.18 mg/dL | GLUCOSE [1]: 147.33 mg/dL | LACTATE DEHYDROGENASE [1]: 161.33 u/L | LIPASE [1]: 12 u/L | PHOSPHORUS [1]: 10.9 mg/dL | POTASSIUM [1]: 6.43 MEQ/L | SODIUM [1]: 144.2 MEQ/L | TOTAL BILIRUBIN [1]: 0.13 mg/dL | TOTAL PROTEIN [1]: 6 G/DL | URIC ACID [1]: 0.77 mg/dL | ABSOLUTE BASOPHIL [2]: 0 CELLS/uL | ABSOLUTE EOSINOPHIL [2]: 0 CELLS/uL | ABSOLUTE LYMPHOCYTE [2]: 14211.67 CELLS/uL | ABSOLUTE MONOCYTE [2]: 0 CELLS/uL | ABSOLUTE SEGMENTED NEUTROPHIL [2]: 1355 CELLS/uL | BASOPHIL [2]: 0% | EOSINOPHIL [2]: 0% | ERYTHROCYTE COUNT [2]: 5.74 x10E6/uL | HEMATOCRIT [2]: 34.87% | HEMOGLOBIN [2]: 13.93 G/DL | LEUKOCYTE COUNT [2]: 15.57 x10E3/uL | LYMPHOCYTE [2]: 91.33% | MEAN CORPUSCULAR HEMOGLOBIN [2]: 24.3 pg | MEAN CORPUSCULAR HEMOGLOBIN CONCENTRATION [2]: 40 G/DL | MEAN CORPUSCULAR VOLUME [2]: 60.77 fL | MONOCYTE [2]: 0% | NEUTROPHIL [2]: 8.67% | NUCLEATED RED BLOOD CELLS [2]: 0 /100WBC | PLATELET COUNT [2]: 1148.33 x10E3/uL | ALANINE AMINOTRANSFERASE [2]: 55.33 u/L | ALBUMIN [2]: 3.93 G/DL | ALKALINE PHOSPHATASE [2]: 277.33 u/L | ASPARTATE AMINOTRANSFERASE [2]: 69.33 u/L | BLOOD UREA NITROGEN [2]: 12 mg/dL | CARBON DIOXIDE [2]: 31.67 mmol/L | CHLORIDE [2]: 101 MEQ/L | CHOLESTEROL [2]: 72.33 mg/dL | CREATINE PHOSPHOKINASE [2]: 173 u/L | CREATININE [2]: 0.21 mg/dL | GLUCOSE [2]: 159.67 mg/dL | LACTATE DEHYDROGENASE [2]: 146 u/L | LIPASE [2]: 10.67 u/L | PHOSPHORUS [2]: 10.6 mg/dL | POTASSIUM [2]: 6.2 MEQ/L | SODIUM [2]: 143.4 MEQ/L | TOTAL BILIRUBIN [2]: 0.17 mg/dL | TOTAL PROTEIN [2]: 5.73 G/DL | URIC ACID [2]: 1.3 mg/dL | ABSOLUTE BASOPHIL [3]: 0 CELLS/uL | ABSOLUTE EOSINOPHIL [3]: 0 CELLS/uL | ABSOLUTE LYMPHOCYTE [3]: 8740 CELLS/uL | ABSOLUTE MONOCYTE [3]: 96.67 CELLS/uL | ABSOLUTE SEGMENTED NEUTROPHIL [3]: 396.67 CELLS/uL | BASOPHIL [3]: 0% | EOSINOPHIL [3]: 0% | ERYTHROCYTE COUNT [3]: 5.14 x10E6/uL | HEMATOCRIT [3]: 33.83% | HEMOGLOBIN [3]: 13.17 G/DL | LEUKOCYTE COUNT [3]: 9.23 x10E3/uL | LYMPHOCYTE [3]: 94.67% | MEAN CORPUSCULAR HEMOGLOBIN [3]: 25.83 pg | MEAN CORPUSCULAR HEMOGLOBIN CONCENTRATION [3]: 38.93 G/DL | MEAN CORPUSCULAR VOLUME [3]: 66.27 fL | MONOCYTE [3]: 1% | NEUTROPHIL [3]: 4.33% | NUCLEATED RED BLOOD CELLS [3]: 0 /100WBC | PLATELET COUNT [3]: 1047.33 x10E3/uL | ALANINE AMINOTRANSFERASE [3]: 67.33 u/L | ALBUMIN [3]: 4.03 G/DL | ALKALINE PHOSPHATASE [3]: 374 u/L | ASPARTATE AMINOTRANSFERASE [3]: 88.67 u/L | BLOOD UREA NITROGEN [3]: 11 mg/dL | CARBON DIOXIDE [3]: 30 mmol/L | CHLORIDE [3]: 97.67 MEQ/L | CHOLESTEROL [3]: 86 mg/dL | CREATINE PHOSPHOKINASE [3]: 412.67 u/L | CREATININE [3]: 0.19 mg/dL | GLUCOSE [3]: 177.67 mg/dL | LACTATE DEHYDROGENASE [3]: 159.67 u/L | LIPASE [3]: 10.33 u/L | PHOSPHORUS [3]: 12.17 mg/dL | POTASSIUM [3]: 5.6 MEQ/L | SODIUM [3]: 141 MEQ/L | TOTAL BILIRUBIN [3]: 0.1 mg/dL | TOTAL PROTEIN [3]: 5.93 G/DL | URIC ACID [3]: 1 mg/dL
